Test results: US11613522B2, “Herbicidally active 3-phenylisoxazoline-5-carboxamides of tetrahydro- and dihydrofurancarboxamides” (BAYER AKTIENGESELLSCHAFT, priority 2017, dated 2023)

Columns and labels:
Assay type in all cases: in vivo
[1] = system: Lolium rigidum; assay: Pre-emergence herbicidal activity against LOLRI; settings: dosage 80 g/ha, scored visually after about 3 weeks vs untreated controls
From the text: (§1) 1. Pre-emergence herbicidal action against harmful plants and crop plant compatibility Seeds of monocotyledonous and dicotyledonous weed plants and crop plants are placed in plastic or wood fiber pots and covered with soil. The compounds of the invention, formulated in the form of wettable powders (WP) or as emulsion concentrates (EC), are then applied onto the surface of the covering soil as aqueous suspension or emulsion with addition of 0.5% additive at a water application rate of 600 l/ha (converted). After the treatment, the pots are placed in a greenhouse and kept under good growth conditions for the trial plants. After about 3 weeks, the effect of the preparations is scored visually in comparison with untreated controls as percentages. For example, 100% activity=the plants have died, 0% activity=like control plants. [table]

[2] = system: Avena fatua; assay: Pre-emergence herbicidal activity against AVEFA; settings: dosage 80 g/ha, scored visually after about 3 weeks vs untreated controls
Procedure, shortened: (§2)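 Seeds sown in pots and covered with soil; compounds formulated as WP or EC applied to the soil surface as aqueous suspension or emulsion with 0.5% additive at 600 l/ha water. Pots held in greenhouse; activity scored visually about 3 weeks later as % versus untreated controls (100% = dead).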

[3] = system: Echinochloa crus-galli; assay: Post-emergence herbicidal activity against ECHCG; settings: dosage 320 g/ha, rated visually after about 3 weeks
Procedure, shortened: (§3)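 Post-emergence foliar spray of wettable-powder or emulsion-concentrate formulations (0.5% additive, 600 l/ha water) onto one-leaf-stage greenhouse plants. Percent activity scored by eye after ~3 weeks against untreated plants; 0% equals control growth, 100% equals plant death.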

[4] = system: Viola tricolor; assay: Post-emergence herbicidal activity against VIOTR; settings: dosage 320 g/ha, rated visually after about 3 weeks
Procedure, shortened: as §3

[5] = system: Echinochloa crus-galli; assay: Pre-emergence herbicidal activity against ECHCG; settings: dosage 80 g/ha, scored visually after about 3 weeks vs untreated controls
From the text: as §1

[6] = system: Polygonum convolvulus; assay: Pre-emergence herbicidal activity against POLCO; settings: dosage 80 g/ha, scored visually after about 3 weeks vs untreated controls
Procedure, shortened: as §2

[7] = system: Setaria viridis; assay: Post-emergence herbicidal activity against SETVI; settings: dosage 320 g/ha, rated visually after about 3 weeks
Procedure, shortened: as §3

[8] = system: Lolium rigidum; assay: Post-emergence herbicidal activity against LOLRI; settings: dosage 320 g/ha, rated visually after about 3 weeks
Procedure, shortened: as §3

[9] = system: Hordeum murinum; assay: Post-emergence herbicidal activity against HORMU; settings: dosage 320 g/ha, rated visually after about 3 weeks
Procedure, shortened: as §3

[10] = system: Alopecurus myosuroides; assay: Post-emergence herbicidal activity against ALOMY; settings: dosage 320 g/ha, rated visually after about 3 weeks
Procedure, shortened: as §3

[11] = system: Stellaria media; assay: Pre-emergence herbicidal activity against STEME; settings: dosage 80 g/ha, scored visually after about 3 weeks vs untreated controls
Procedure, shortened: as §2

[12] = system: Alopecurus myosuroides; assay: Pre-emergence herbicidal activity against ALOMY; settings: dosage 80 g/ha, scored visually after about 3 weeks vs untreated controls
Procedure, shortened: as §2

[13] = system: Viola tricolor; assay: Pre-emergence herbicidal activity against VIOTR; settings: dosage 80 g/ha, scored visually after about 3 weeks vs untreated controls
From the text: as §1

[14] = system: Polygonum convolvulus; assay: Post-emergence herbicidal activity against POLCO; settings: dosage 320 g/ha, rated visually after about 3 weeks
Procedure, shortened: as §3

[15] = system: Veronica persica; assay: Post-emergence herbicidal activity against VERPE; settings: dosage 320 g/ha, rated visually after about 3 weeks
Procedure, shortened: as §3

[16] = system: Hordeum murinum; assay: Pre-emergence herbicidal activity against HORMU; settings: dosage 80 g/ha
From the text: as §1

[17] = system: Avena fatua; assay: Post-emergence herbicidal activity against AVEFA; settings: dosage 320 g/ha, rated visually after about 3 weeks
Procedure, shortened: as §3

[18] = system: Pharbitis purpurea; assay: Post-emergence herbicidal activity against PHBPU; settings: dosage 320 g/ha, rated visually after about 3 weeks
Procedure, shortened: as §3

[19] = system: Amaranthus retroflexus; assay: Pre-emergence herbicidal activity against AMARE; settings: dosage 80 g/ha, scored visually after about 3 weeks vs untreated controls
From the text: as §1

[20] = system: Amaranthus retroflexus; assay: Post-emergence herbicidal activity against AMARE; settings: dosage 320 g/ha, rated visually after about 3 weeks
Procedure, shortened: as §3

[21] = system: Stellaria media; assay: Post-emergence herbicidal activity against STEME; settings: dosage 320 g/ha, rated visually after about 3 weeks
Procedure, shortened: as §3

[22] = system: Abutilon theophrasti; assay: Post-emergence herbicidal activity against ABUTH; settings: dosage 320 g/ha, rated visually after about 3 weeks
Procedure, shortened: as §3

[23] = system: Pharbitis purpurea; assay: Pre-emergence herbicidal activity against PHBPU; settings: dosage 80 g/ha, scored visually after about 3 weeks vs untreated controls
From the text: as §1

[24] = system: Setaria viridis; assay: Pre-emergence herbicidal activity against SETVI; settings: dosage 80 g/ha, scored visually after about 3 weeks vs untreated controls
From the text: as §1

[25] = system: Veronica persica; assay: Pre-emergence herbicidal activity against VERPE; settings: dosage 80 g/ha
Procedure, shortened: as §2

SMILES | Pre-emergence herbicidal activity in % against LOLRI [1] | Pre-emergence herbicidal activity in % against AVEVA (AVEFA) [2] | Pre-emergence herbicidal activity in % against ECHCG [5] | Pre-emergence herbicidal activity in % against POLCO [6] | Post-emergence herbicidal activity in % against SETVI [7] | Post-emergence herbicidal activity in % against LOLRI [8] | Post-emergence herbicidal activity in % against HORMU [9] | Post-emergence herbicidal activity in % against ALOMY [10] | Pre-emergence herbicidal activity in % against STEME [11] | Pre-emergence herbicidal activity in % against ALOMY [12] | Pre-emergence herbicidal activity in % against VIOTR [13] | Post-emergence herbicidal activity in % against POLCO [14] | Post-emergence herbicidal activity in % against VERPE [15] | Post-emergence herbicidal activity in % against AVEFA [17] | Post-emergence herbicidal activity in % against PHBPU [18] | Pre-emergence herbicidal activity in % against AMARE [19] | Post-emergence herbicidal activity in % against AMARE [20] | Post-emergence herbicidal activity in % against STEME [21] | Post-emergence herbicidal activity in % against ABUTH [22] | Pre-emergence herbicidal activity in % against PHBPU [23] | also measured
C=C[C@]1(C(=O)N[C@@H]2CO[C@H](C(=O)NCCC(=O)OC)C2)CC(c2cc(F)cc(F)c2)=NO1 [Example I-20] | 100% | 100% | 100% | 100% | 90% | 100% | 100% | 100% | 100% | 100% | 100% | 80% | 80% | 100% | 90% | 100% | 90% | 80% | 80% | 80% | Post-emergence herbicidal activity in % against ECHCG [3]: 100%; Post-emergence herbicidal activity in % against VIOTR [4]: 80%; Pre-emergence herbicidal activity in % against HORMU [16]: 100%; Pre-emergence herbicidal activity in % against SETVI [24]: 100%
C=C[C@]1(C(=O)N[C@@H]2CO[C@H](C(=O)NCC(=O)OC)C2)CC(c2cc(F)cc(F)c2)=NO1 [Example I-21] | 100% | 100% | 100% | 100% | 90% | 90% | 100% | 90% | 90% | 100% | 100% | 90% | 80% | 100% | 90% | 100% | 90% | 90% | 90% | 90% | Post-emergence herbicidal activity in % against ECHCG [3]: 90%; Post-emergence herbicidal activity in % against VIOTR [4]: 90%; Pre-emergence herbicidal activity in % against HORMU [16]: 90%; Pre-emergence herbicidal activity in % against SETVI [24]: 100%; Pre-emergence herbicidal activity in % against VERPE [25]: 90%
C[C@]1(C(=O)N[C@@H]2CO[C@H](C(=O)NS(C)(=O)=O)C2)CC(c2cc(F)cc(F)c2)=NO1 [Example I-23] | 100% | 100% | 100% | 100% | 80% | 100% | 100% | 90% | 100% | 100% | 90% | 90% | 80% | 100% | 80% | 100% | 80% | 90% | 80% | 90% | Post-emergence herbicidal activity in % against ECHCG [3]: 90%; Post-emergence herbicidal activity in % against VIOTR [4]: 80%; Pre-emergence herbicidal activity in % against HORMU [16]: 90%; Pre-emergence herbicidal activity in % against SETVI [24]: 100%; Pre-emergence herbicidal activity in % against VERPE [25]: 90%
CN(C)C(=O)[C@@H]1C[C@H](NC(=O)[C@@]2(C)CC(c3cc(F)cc(F)c3)=NO2)CO1 [Example I-25] | 100% | 90% | 80% | 100% | 80% | 100% | 90% | 100% | 100% | 100% | 100% | 80% | 80% | 90% | 90% | 100% | 80% | 90% | 80% | 90% | Pre-emergence herbicidal activity in % against SETVI [24]: 100%; Pre-emergence herbicidal activity in % against VERPE [25]: 90%
